Tests used:
Assay in all cases: glycan microarray on nitrocellulose, anti-His detection
HvGBSSI = biological target: T1, HvGBSSI (Hordeum vulgare, UniProt P09842); settings: protein 30 μg/mL in PBS with 5% milk powder; printed oligosaccharide; weaker binding
T1 construct: gene WAXY; without predicted chloroplast transit peptide, N-terminal His-tag, codon-optimised, E. coli
T1 sequence (P09842 71-603): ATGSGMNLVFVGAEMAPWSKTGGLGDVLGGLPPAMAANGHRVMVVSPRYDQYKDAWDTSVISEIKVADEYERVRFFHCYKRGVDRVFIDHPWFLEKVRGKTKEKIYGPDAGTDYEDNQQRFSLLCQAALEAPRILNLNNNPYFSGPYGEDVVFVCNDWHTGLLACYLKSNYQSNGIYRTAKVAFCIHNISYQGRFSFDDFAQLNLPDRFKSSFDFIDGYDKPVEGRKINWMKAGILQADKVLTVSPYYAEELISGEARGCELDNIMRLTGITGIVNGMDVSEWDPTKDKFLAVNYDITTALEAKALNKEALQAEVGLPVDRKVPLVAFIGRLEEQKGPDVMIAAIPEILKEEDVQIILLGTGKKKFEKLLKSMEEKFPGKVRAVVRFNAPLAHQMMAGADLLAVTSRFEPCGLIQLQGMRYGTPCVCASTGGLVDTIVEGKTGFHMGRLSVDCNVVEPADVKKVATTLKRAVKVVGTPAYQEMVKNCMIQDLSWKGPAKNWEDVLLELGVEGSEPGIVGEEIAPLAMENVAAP

HvSSIIa = biological target: T2, HvSSIIa (Hordeum vulgare, UniProt Q8H1Y8); settings: protein 30 μg/mL in PBS with 5% milk powder; printed oligosaccharide; strong binding
T2 construct: without predicted chloroplast transit peptide, N-terminal His-tag, codon-optimised, E. coli
T2 sequence (Q8H1Y8 61-802): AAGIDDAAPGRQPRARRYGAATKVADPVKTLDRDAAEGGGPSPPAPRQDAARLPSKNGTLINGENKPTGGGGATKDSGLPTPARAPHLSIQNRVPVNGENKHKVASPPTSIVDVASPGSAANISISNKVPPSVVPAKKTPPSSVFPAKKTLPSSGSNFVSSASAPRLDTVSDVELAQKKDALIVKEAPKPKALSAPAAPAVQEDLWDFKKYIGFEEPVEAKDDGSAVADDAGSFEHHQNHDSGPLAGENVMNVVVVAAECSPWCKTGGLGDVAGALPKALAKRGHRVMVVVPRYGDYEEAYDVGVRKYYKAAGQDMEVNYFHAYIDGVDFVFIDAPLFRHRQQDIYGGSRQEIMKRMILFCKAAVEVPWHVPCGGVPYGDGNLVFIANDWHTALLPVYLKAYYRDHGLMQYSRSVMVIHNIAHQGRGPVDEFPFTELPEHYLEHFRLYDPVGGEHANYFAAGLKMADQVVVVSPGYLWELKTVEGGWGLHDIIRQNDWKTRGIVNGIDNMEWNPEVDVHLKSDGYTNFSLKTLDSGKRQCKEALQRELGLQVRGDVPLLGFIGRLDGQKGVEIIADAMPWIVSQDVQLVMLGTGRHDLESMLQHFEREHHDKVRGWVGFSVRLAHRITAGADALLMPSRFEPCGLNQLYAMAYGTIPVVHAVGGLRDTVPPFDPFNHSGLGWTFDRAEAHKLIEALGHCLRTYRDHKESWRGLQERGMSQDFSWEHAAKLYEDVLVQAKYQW

HvSSIV = biological target: T3, HvSSIV (Hordeum vulgare, UniProt F2CUZ5); settings: protein 30 μg/mL in PBS with 5% milk powder; printed oligosaccharide; strong binding
T3 construct: without predicted chloroplast transit peptide, C-terminal His-tag, codon-optimised, E. coli
T3 sequence (F2CUZ5 49-914): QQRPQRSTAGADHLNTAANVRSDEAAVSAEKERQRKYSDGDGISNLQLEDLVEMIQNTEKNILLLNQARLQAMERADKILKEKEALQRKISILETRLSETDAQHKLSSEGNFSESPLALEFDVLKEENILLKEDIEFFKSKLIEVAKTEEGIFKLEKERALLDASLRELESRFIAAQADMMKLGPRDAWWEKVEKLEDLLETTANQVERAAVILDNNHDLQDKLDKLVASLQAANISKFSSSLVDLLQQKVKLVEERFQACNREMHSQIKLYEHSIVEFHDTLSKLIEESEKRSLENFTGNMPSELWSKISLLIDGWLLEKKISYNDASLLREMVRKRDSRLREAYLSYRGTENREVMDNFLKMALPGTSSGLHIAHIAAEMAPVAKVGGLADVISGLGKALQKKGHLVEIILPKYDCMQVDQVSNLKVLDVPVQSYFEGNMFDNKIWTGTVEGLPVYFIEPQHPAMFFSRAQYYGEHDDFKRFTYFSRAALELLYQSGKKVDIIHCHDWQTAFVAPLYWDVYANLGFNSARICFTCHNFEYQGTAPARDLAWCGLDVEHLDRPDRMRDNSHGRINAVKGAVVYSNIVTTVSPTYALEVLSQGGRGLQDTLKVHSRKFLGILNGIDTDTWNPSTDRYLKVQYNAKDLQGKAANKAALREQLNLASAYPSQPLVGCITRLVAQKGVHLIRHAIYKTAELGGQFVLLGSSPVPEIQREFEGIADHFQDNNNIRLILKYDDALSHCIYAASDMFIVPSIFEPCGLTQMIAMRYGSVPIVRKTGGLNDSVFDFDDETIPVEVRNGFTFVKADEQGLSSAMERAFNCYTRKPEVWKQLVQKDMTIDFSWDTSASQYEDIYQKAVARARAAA

CBM53-3 = biological target: T4, CBM53-3 (Hordeum vulgare, UniProt G1FUP7); settings: protein 30 μg/mL in PBS with 5% milk powder; printed oligosaccharide; strong binding
T4 construct: third CBM53 domain of HvSSIIIa only, C-terminal His-tag, vector pET151, E. coli; borders only in supplement
T4 sequence (G1FUP7 entry or part of it): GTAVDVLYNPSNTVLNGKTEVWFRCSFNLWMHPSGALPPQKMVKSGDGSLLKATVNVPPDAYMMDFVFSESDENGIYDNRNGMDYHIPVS

O=P(O)(O)O[C@H]1[C@H](O[C@H]2O[C@H](CO)[C@@H](O)[C@H](O)[C@H]2O)[C@@H](CO)OC(O)[C@@H]1O (stereo partly shown) [3-phosphomaltose]
glycan microarray on nitrocellulose, anti-His detection (HvGBSSI): while GBSSI showed weaker binding and binding was non-detectable for SSI
glycan microarray on nitrocellulose, anti-His detection (HvSSIIa): SSIIa, CBM53-3, and SSIV all showed strong binding to 3-phosphomaltose
glycan microarray on nitrocellulose, anti-His detection (HvSSIV): SSIIa, CBM53-3, and SSIV all showed strong binding to 3-phosphomaltose
glycan microarray on nitrocellulose, anti-His detection (CBM53-3): SSIIa, CBM53-3, and SSIV all showed strong binding to 3-phosphomaltose

— publication PMC4730117, “In vitro Biochemical Characterization of All Barley Endosperm Starch Synthases” (Frontiers in Plant Science, 2016)
